ChEMBL document CHEMBL5634084, “Design and optimization of selective and potent CDK9 inhibitors with flavonoid scaffold for the treatment of acute myeloid leukemia” (Eur J Med Chem, 2023)

Experiments:
[1] = molecular target: CDK9/cyclin T1 (Homo sapiens) (UniProt O60563+P50750); test: Inhibition of CDK9/CyclinT1 (unknown origin) at 100 nM by ADP-Glo assay relative to control; type: protein-complex assay
[2] = molecular target: CDK2/Cyclin A2 (Homo sapiens) (UniProt P24941+P20248); test: Inhibition of CDK2/CyclinA2 (unknown origin) at 100 nM by ADP-Glo assay relative to control; type: protein-complex assay
CDK6/cyclin D1 = CDK6/cyclin D1 (Homo sapiens, UniProt Q00534); test: Inhibition of CDK6/CyclinD1 (unknown origin) by ADP-Glo assay; type: protein-complex assay
[3] = molecular target: MAP kinase-interacting serine/threonine-protein kinase 2 (Homo sapiens) (UniProt Q9HBH9); test: Inhibition of wild type partial length human MKNK2 (63 to 388 residues) expressed in mammalian expression system at 1 uM by KINOMEscan analysis
[4] = molecular target: Calcium-dependent protein kinase 1 (Plasmodium falciparum) (UniProt P62344); test: Inhibition of wild type full length Plasmodium falciparum PFCDPK1 (1 to 524 residues) expressed in mammalian expression system at 1 uM by KINOMEscan analysis
[5] = molecular target: Serine/threonine-protein kinase SIK3 (Homo sapiens) (UniProt Q9Y2K2); test: Inhibition of wild type partial length human QSK (90 to 395 residues) expressed in mammalian expression system at 1 uM by KINOMEscan analysis
[6] = molecular target: Cyclin-dependent kinase 4/cyclin D1 (Homo sapiens) (UniProt P11802+P24385); test: Inhibition of wild type full length human CDK4 (1 to 303 residues)/CyclinD1 expressed in mammalian expression system at 1 uM by KINOMEscan analysis
[7] = molecular target: NUAK family SNF1-like kinase 2 (Homo sapiens) (UniProt Q9H093); test: Inhibition of wild type partial length human SNARK (22 to 333 residues) expressed in mammalian expression system at 1 uM by KINOMEscan analysis
[8] = Metabolic stability of the compound in rat liver microsomes at 10 uM measured for 60 mins in presence of NADPH by LC-MS/MS analysis; type: ADME, Microsome; settings: 1 h
[9] = Metabolic stability of the compound in mouse liver microsomes at 10 uM measured for 60 mins in presence of NADPH by LC-MS/MS analysis; type: ADME, Microsome; settings: 1 h
THP-1 = test: Antiproliferative activity against human THP-1 cells assessed as reduction in cell viability measured after 72 hrs; type: functional, cell-based; settings: THP-1, 72 h
MCF7 = test: Antiproliferative activity against human MCF7 cells assessed as reduction in cell viability measured after 72 hrs; type: functional, cell-based; settings: MCF7, 72 h
HT-29 = test: Antiproliferative activity against human HT-29 cells assessed as reduction in cell viability measured after 72 hrs; type: functional, cell-based; settings: HT-29, 72 h
[10] = Cytotoxicity against human L02 cells assessed as reduction in cell viability measured after 72 hrs; type: toxicity, cell-based
[11] = molecular target: Cyclin-dependent kinase 9 (Homo sapiens) (UniProt P50750); test: Inhibition of CDK9 in human MV4-11 cells assessed as reduction in c-Myc protein expression incubated for 12 hrs by western blot analysis; type: cell-based; settings: dose 0.1-4 µM
MV4-11 [12] = test: Induction of apoptosis in human MV4-11 cells assessed as late apoptotic cells at 0.1 uM incubated for 24 hrs by AnnexinV-FITC/PI staining based flow cytometry (reference value: 5.21%); type: functional
MV4-11 [13] = test: Induction of apoptosis in human MV4-11 cells assessed as late apoptotic cells at 0.5 uM incubated for 24 hrs by AnnexinV-FITC/PI staining based flow cytometry (reference value: 5.21%); type: functional
MV4-11 [14] = test: Induction of apoptosis in human MV4-11 cells assessed as early apoptotic cells at 1 uM incubated for 24 hrs by AnnexinV-FITC/PI staining based flow cytometry (reference value: 1.42%); type: functional
MV4-11 [15] = test: Induction of apoptosis in human MV4-11 cells assessed as late apoptotic cells at 1 uM incubated for 24 hrs by AnnexinV-FITC/PI staining based flow cytometry (reference value: 5.21%); type: functional
MV4-11 [16] = test: Induction of apoptosis in human MV4-11 cells assessed as viable cells at 2 uM incubated for 24 hrs by AnnexinV-FITC/PI staining based flow cytometry (reference value: 93.4%); type: functional; settings: read-out: Activity
MV4-11 [17] = test: Induction of apoptosis in human MV4-11 cells assessed as early apoptotic cells at 2 uM incubated for 24 hrs by AnnexinV-FITC/PI staining based flow cytometry (reference value: 1.42%); type: functional
MV4-11 [18] = test: Induction of apoptosis in human MV4-11 cells assessed as late apoptotic cells at 4 uM incubated for 24 hrs by AnnexinV-FITC/PI staining based flow cytometry (reference value: 5.21%); type: functional
MV4-11 [19] = test: Induction of apoptosis in human MV4-11 cells assessed as increase in cleaved PARP-1 protein expression incubated for 24 hrs by western blot analysis; type: functional, cell-based; settings: dose 0.1-4 µM
MV4-11 [20] = test: Induction of apoptosis in human MV4-11 cells assessed as increase in cleaved caspase 3 protein expression incubated for 24 hrs by western blot analysis; type: functional, cell-based; settings: dose 0.1-4 µM
MV4-11 [21] = test: Induction of cell cycle arrest in human MV4-11 cells assessed as accumulation of cells at G0/G1 phase at 0.1 uM incubated fo 36 hrs by propidium iodide staining based flow cytometry (reference value: 64%); type: functional
MV4-11 [22] = test: Induction of cell cycle arrest in human MV4-11 cells assessed as accumulation of cells at S phase at 0.1 uM incubated fo 36 hrs by propidium iodide staining based flow cytometry (reference value: 26.5%); type: functional
MV4-11 [23] = test: Induction of cell cycle arrest in human MV4-11 cells assessed as accumulation of cells at G2/M phase at 0.1 uM incubated fo 36 hrs by propidium iodide staining based flow cytometry (reference value: 9.5%); type: functional
MV4-11 [24] = test: Induction of cell cycle arrest in human MV4-11 cells assessed as accumulation of cells at G0/G1 phase at 0.2 uM incubated fo 36 hrs by propidium iodide staining based flow cytometry (reference value: 64%); type: functional
MV4-11 [25] = test: Induction of cell cycle arrest in human MV4-11 cells assessed as accumulation of cells at S phase at 0.2 uM incubated fo 36 hrs by propidium iodide staining based flow cytometry (reference value: 26.5%); type: functional
MV4-11 [26] = test: Induction of cell cycle arrest in human MV4-11 cells assessed as accumulation of cells at G2/M phase at 0.2 uM incubated fo 36 hrs by propidium iodide staining based flow cytometry (reference value: 9.5%); type: functional
MV4-11 [27] = test: Induction of cell cycle arrest in human MV4-11 cells assessed as accumulation of cells at G0/G1 phase at 0.4 uM incubated fo 36 hrs by propidium iodide staining based flow cytometry (reference value: 64%); type: functional
MV4-11 [28] = test: Induction of cell cycle arrest in human MV4-11 cells assessed as accumulation of cells at S phase at 0.8 uM incubated fo 36 hrs by propidium iodide staining based flow cytometry (reference value: 26.5%); type: functional
MV4-11 [29] = test: Induction of cell cycle arrest in human MV4-11 cells assessed as accumulation of cells at G2/M phase at 0.8 uM incubated fo 36 hrs by propidium iodide staining based flow cytometry (reference value: 9.5%); type: functional

Cyclin-dependent kinase 9 (Homo sapiens), sequence (P50750 whole entry): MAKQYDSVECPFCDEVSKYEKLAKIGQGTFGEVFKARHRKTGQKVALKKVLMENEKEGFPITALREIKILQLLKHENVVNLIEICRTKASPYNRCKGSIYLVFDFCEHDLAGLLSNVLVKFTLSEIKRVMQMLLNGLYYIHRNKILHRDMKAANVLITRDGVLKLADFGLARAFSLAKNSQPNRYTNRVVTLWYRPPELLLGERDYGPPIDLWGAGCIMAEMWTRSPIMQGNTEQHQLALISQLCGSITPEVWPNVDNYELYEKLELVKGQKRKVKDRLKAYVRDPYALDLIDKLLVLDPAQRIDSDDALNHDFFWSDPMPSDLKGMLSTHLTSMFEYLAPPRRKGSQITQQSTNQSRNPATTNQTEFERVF
NUAK family SNF1-like kinase 2 (Homo sapiens), sequence (Q9H093 whole entry, the tested form may be a part): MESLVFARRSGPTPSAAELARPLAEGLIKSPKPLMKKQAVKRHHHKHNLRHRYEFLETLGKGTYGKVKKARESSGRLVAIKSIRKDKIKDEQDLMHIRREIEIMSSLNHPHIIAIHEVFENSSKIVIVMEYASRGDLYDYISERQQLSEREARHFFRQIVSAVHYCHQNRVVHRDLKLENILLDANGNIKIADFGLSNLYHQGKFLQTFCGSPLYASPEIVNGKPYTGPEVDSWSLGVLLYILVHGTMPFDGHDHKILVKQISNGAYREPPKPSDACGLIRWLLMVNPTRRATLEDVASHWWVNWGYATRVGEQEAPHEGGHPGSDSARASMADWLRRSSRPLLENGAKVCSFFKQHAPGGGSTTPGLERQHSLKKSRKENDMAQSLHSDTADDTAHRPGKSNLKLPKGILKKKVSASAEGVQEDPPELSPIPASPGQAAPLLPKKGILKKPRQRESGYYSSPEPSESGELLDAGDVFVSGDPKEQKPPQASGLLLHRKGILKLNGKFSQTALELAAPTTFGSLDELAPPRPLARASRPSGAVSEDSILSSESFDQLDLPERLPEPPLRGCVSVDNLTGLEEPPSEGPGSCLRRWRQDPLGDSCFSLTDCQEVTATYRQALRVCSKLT
CDK6/cyclin D1, sequence (P24385 whole entry, the tested form may be a part): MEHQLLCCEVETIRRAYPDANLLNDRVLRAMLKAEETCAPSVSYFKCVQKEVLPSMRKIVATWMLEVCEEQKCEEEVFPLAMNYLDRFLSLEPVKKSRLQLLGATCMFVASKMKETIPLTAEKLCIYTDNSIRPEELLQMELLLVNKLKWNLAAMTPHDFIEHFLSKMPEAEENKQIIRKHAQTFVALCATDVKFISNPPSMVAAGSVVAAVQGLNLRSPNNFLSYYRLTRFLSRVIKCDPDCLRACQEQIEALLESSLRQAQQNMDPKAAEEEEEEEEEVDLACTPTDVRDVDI
CDK6/cyclin D1, sequence (Q00534 whole entry, the tested form may be a part): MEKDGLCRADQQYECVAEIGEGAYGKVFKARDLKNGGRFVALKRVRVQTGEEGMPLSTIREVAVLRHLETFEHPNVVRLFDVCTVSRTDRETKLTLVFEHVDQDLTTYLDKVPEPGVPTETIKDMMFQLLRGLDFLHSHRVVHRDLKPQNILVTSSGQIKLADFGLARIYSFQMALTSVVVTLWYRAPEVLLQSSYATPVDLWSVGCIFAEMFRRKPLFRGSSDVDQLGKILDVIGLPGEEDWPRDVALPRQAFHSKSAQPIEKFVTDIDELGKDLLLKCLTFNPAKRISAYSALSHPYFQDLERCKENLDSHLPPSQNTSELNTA
MAP kinase-interacting serine/threonine-protein kinase 2 (Homo sapiens), sequence (Q9HBH9 whole entry, looked up, the tested form may be a part): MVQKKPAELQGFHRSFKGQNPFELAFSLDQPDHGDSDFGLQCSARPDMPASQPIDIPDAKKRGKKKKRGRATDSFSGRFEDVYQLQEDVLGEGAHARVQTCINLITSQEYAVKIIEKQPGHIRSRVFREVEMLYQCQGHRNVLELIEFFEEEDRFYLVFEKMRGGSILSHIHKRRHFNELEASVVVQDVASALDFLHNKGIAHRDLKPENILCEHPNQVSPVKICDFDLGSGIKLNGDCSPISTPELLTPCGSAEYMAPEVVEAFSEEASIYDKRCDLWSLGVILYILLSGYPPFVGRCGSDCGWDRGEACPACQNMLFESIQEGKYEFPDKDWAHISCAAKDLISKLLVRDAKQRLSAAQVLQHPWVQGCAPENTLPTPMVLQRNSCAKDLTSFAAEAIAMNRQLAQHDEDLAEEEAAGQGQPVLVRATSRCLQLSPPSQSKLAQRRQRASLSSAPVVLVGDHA
Serine/threonine-protein kinase SIK3 (Homo sapiens), sequence (Q9Y2K2 whole entry, looked up, the tested form may be a part): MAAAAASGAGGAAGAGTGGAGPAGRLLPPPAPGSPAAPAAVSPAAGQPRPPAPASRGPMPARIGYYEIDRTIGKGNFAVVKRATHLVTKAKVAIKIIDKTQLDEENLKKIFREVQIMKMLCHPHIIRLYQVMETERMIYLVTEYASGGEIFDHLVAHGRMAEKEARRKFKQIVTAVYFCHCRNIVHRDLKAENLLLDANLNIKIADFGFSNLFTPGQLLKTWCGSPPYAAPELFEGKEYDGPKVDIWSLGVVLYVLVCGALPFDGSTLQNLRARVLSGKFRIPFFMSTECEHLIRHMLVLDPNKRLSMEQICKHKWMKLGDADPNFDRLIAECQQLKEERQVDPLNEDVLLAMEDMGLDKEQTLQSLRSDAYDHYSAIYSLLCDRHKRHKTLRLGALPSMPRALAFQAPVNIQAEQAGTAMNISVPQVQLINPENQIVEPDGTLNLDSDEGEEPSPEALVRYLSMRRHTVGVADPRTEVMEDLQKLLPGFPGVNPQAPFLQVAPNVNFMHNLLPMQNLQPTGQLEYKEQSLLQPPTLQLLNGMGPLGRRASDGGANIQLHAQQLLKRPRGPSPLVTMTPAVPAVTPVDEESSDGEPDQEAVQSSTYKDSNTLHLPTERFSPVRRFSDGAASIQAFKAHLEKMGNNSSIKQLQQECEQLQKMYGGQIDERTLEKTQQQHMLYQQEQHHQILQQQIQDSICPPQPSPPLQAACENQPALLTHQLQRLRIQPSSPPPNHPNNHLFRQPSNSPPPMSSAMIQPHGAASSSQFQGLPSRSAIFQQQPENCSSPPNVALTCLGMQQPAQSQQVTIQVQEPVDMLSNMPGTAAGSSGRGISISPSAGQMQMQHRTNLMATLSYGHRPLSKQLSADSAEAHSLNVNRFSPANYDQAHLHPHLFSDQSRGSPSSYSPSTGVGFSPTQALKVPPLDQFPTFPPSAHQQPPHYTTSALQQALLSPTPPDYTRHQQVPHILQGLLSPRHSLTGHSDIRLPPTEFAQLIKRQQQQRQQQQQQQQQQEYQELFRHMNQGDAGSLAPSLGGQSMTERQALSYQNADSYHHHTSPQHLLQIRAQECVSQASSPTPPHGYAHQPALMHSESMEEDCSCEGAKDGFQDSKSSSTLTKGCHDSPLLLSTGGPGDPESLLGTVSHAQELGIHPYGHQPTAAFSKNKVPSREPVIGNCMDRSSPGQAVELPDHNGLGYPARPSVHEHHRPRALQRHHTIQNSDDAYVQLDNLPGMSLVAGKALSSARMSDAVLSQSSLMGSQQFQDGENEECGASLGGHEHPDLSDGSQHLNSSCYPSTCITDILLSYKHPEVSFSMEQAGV
Calcium-dependent protein kinase 1 (Plasmodium falciparum), sequence (P62344 2-524 limits assumed): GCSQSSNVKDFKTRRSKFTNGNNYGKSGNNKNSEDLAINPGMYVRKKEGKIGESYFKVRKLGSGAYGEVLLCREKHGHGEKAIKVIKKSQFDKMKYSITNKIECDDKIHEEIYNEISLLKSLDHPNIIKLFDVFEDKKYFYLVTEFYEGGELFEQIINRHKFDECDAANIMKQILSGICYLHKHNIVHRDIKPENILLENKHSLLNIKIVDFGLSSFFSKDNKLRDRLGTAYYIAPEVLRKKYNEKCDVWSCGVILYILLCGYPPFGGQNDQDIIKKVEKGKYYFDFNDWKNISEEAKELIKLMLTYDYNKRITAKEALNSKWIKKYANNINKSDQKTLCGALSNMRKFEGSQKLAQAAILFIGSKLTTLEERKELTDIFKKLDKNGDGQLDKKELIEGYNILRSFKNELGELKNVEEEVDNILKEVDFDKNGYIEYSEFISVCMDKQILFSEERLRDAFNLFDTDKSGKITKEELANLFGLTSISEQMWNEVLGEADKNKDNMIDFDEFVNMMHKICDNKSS

**Q.** Which results are given for `COc1cc(O)c2c(=O)cc(-c3ccc(N4CCN(C)CC4)cc3)oc2c1C1=CCN(C)CC1`?
**A.** inhibition [1]: 98.9%; inhibition [2]: 16.7%; IC50 (CDK6/cyclin D1): 589 nM; inhibition [3]: 1.6%; inhibition [4]: 2.2%; inhibition [5]: 3.3%; inhibition [6]: 5.3%; inhibition [7]: 6.2%; Stability [8]: Stable; Stability [9]: Stable; IC50 (THP-1): 450 nM; IC50 (MCF7): 140 nM; IC50 (HT-29): 1060 nM; IC50 at 72 h [10]: 10600 nM; inhibition [11]: Dose-Dependent Effect; Activity (MV4-11 [12]): 6.98%; Activity (MV4-11 [13]): 10.2%; Activity (MV4-11 [14]): 9.95%; Activity (MV4-11 [15]): 20.9%; viability at 2 µM (MV4-11 [16]): 3.12%; Activity (MV4-11 [17]): 67%; Activity (MV4-11 [18]): 21.3%; Activity (MV4-11 [19]): Dose-Dependent Effect; Activity (MV4-11 [20]): Dose-Dependent Effect; Activity (MV4-11 [21]): 70.5%; Activity (MV4-11 [22]): 21%; Activity (MV4-11 [23]): 8.5%; Activity (MV4-11 [24]): 73.9%; Activity (MV4-11 [25]): 19%; Activity (MV4-11 [26]): 7.1%; Activity (MV4-11 [27]): 81.2%; Activity (MV4-11 [28]): 10.8%; Activity (MV4-11 [29]): 5%
